Experimental data reported in patent US20240226108A9, “TREATMENT OF BRAIN INJURIES” (ASTON UNIVERSITY, priority 2021, published 2024).

Columns and labels:
[1] = target: CCR5 (Mus musculus, UniProt P51682); details: compared with CCR5 knockdown; cited from earlier work
[2] = test system: rat brain tissue slices; assay: calcein AM cell viability staining of brain slices subjected to hypoxia; format: cell-based; details: calcein AM MFI, Maraviroc 50 μM, trifluoperazine 100 μM, 1 hour pre-treatment, 30 minutes hypoxia; for Significant? (Dunn's multiple comparisons test vs. vehicle control): Alpha 0.05; for Mean rank 2 (mean rank of treatment group, Kruskal-Wallis): vehicle control mean rank 11.73
Protocol: Brain slices were pre-treated for 1 hour with final concentrations of Maraviroc (50 μM), trifluoperazine (100 μM), and both drugs trifluoperazine and maraviroc against vehicle control for 1 hour, before being subjected to 30 minutes of hypoxia.
Damage to the brain tissue was determined by staining the tissue with acetoxymethyl calcein (calcein AM), available from Abcam Ltd, Cambridge, UK and Thermo Fisher, USA. The assay is a quantitative assay used to determine cell viability.

Sequence of CCR5 (P51682 whole entry): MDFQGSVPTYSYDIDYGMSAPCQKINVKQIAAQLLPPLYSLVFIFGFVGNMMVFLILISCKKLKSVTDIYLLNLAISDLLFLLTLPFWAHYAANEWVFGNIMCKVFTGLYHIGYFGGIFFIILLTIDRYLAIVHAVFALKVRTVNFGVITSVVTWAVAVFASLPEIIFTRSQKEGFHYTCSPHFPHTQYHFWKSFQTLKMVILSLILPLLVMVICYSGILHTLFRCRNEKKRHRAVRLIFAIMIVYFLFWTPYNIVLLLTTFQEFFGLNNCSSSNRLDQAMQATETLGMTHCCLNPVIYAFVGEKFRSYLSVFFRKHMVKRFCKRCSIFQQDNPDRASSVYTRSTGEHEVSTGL

| Compound | motor recovery post-stroke and cognitive decline post traumatic brain injury [1] | Significant? (Dunn's multiple comparisons test vs. vehicle control) [2] | Mean rank diff. (Dunn's multiple comparisons test, vehicle control vs. treatment) [2] | Summary (significance stars, Dunn's multiple comparisons test vs. vehicle control) [2] | Z (Dunn's multiple comparisons test vs. vehicle control) [2] | Mean rank 2 (mean rank of treatment group, Kruskal-Wallis) [2] |
| --- | --- | --- | --- | --- | --- | --- |
| Maraviroc | produced similar effects on motor recovery post-stroke and cognitive decline post traumatic brain injury | Yes | −22.07 | ** ((**) p≤0.01) | 3.460 | 33.80 |
| CN1CCN(CCCN2c3ccccc3Sc3ccc(C(F)(F)F)cc32)CC1 [TFP, trifluoperazine] |  | Yes | −25.87 | *** ((***) p≤001) | 4.056 | 37.60 |
